Source: patent US20170143712A1, “Methods of Treating Cancers, Immune and Autoimmune Diseases, and Inflammatory Diseases Based on BTK Occupancy and BTK Resynthesis Rate” (Acerta Pharma B.V., priority 2014, published 2017)
Entries after “also recorded” stand apart in the source; their conditions may differ.

Legend:
[1] = Plasma pharmacokinetics in CLL patients; format: in vivo; conditions: human, oral administration
Excerpt: In this indication, the rapid resynthesis of BTK in the tumor cells in the CLL cell compartment is observed as a steeper rate of decline in the percentage of BTK sites occupied by Formula (II), compared with what has been observed in normal peripheral blood cells of healthy volunteers (compare linear slope estimates of FIG. 25 with FIG. 34).

[2] = tested on: established type II collagen-induced arthritis (CIA) in DBA/1 mice; assay: 14-day mouse established type II collagen-induced arthritis (CIA), PO QD (Example 10); format: in vivo; conditions: for AUC (All Paws) - Corrected for Initial Score / Change in Body Weight (g) / Histopathology Summed Score Knees / Histopathology Summed Score Paws / Histopathology Summed Score Six-Joints / Paw Score AUC (All Paws): mean(SE); for disease-induced body weight loss (percent change from baseline) vs vehicle controls / arthritis scores measured daily vs vehicle controls: p<0.05 on the days printed
[3] = molecular target: BTK (Homo sapiens, UniProt Q06187); assay: Intracellular total BTK protein in peripheral blood B lymphocytes of healthy volunteers (flow cytometry); format: in vivo
Chain of BTK (Homo sapiens, UniProt Q06187) (Q06187 whole entry): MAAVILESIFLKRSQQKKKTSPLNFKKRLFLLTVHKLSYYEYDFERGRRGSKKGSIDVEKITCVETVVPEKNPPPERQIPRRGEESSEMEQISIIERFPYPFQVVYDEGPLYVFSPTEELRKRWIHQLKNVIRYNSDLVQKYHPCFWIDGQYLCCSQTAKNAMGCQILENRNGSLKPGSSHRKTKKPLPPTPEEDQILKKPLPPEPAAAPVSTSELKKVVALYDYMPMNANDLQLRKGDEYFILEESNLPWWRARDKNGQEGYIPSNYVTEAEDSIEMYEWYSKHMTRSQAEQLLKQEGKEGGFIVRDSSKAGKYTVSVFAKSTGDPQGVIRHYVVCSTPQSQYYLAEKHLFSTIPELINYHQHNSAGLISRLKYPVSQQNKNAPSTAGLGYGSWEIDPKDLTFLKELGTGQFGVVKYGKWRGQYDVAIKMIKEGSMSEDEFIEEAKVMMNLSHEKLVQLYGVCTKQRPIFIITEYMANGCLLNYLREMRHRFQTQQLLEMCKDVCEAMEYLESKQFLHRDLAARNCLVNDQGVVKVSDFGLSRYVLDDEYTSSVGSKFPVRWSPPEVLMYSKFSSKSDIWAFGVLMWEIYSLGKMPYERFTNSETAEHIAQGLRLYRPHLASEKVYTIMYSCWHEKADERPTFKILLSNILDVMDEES
Protocol: The percentage of pre-study BTK protein level was determined in cryopreserved B cells by flow cytometry analysis of Mean Fluorescence Intensity.

[4] = molecular target: T1, BTK (Canis lupus familiaris, UniProt A0A8I3P3Z9); assay: BTK target occupancy in peripheral B-cells and lymph node fine needle aspirates of dogs with spontaneous lymphoma; format: in vivo, dog
T1 construct: Purified peripheral B-cells and FNA samples were snap-frozen for measurement of BTK target occupancy; from tissue; host or cells: peripheral blood CD21+ B cells and lymph node fine needle aspirates of companion dogs with spontaneous lymphoma, dosed in vivo
T1 sequence (A0A8I3P3Z9 1-664): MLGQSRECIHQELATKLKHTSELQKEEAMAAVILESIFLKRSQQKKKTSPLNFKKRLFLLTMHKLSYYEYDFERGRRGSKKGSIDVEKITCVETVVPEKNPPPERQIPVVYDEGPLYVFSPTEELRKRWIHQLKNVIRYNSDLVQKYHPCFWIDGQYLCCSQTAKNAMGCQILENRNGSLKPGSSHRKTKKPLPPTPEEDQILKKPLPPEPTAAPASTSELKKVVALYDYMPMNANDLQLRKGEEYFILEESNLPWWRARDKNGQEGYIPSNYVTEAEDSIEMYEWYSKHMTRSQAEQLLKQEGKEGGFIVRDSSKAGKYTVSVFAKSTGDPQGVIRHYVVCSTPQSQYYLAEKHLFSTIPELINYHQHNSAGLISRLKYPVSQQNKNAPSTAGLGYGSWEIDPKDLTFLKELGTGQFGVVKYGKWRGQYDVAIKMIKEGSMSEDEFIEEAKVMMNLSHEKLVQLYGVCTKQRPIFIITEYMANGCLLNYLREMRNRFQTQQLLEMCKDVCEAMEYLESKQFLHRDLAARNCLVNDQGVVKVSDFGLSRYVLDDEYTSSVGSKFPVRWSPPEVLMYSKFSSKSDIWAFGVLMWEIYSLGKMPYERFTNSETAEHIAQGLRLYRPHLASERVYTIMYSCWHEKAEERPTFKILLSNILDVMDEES
Protocol: Dogs were administered Formula (II) orally once daily and evaluations occurred every 7 days for the first 4 weeks of the study, then every 14 days thereafter. PBMCs and lymph node fine needle aspirates (lymphoma patients only) were obtained for PD analysis on day 0 at time 0 hr and 3 hr, and again at pre-dose (Cmin) on day 7 of drug administration. In each cohort, PK analysis was performed in 2 dogs on day 14 of the study consisting of blood sampling at 0, 0.5, 1, 2, 3, 4, 6, 8, 12, and 24 hr following drug administration.
Peripheral blood mononuclear cells (PBMCs) were isolated from blood and the CD21+ B-cells were enriched by positive magnetic selection. For fine needle aspiration (FNA) samples, erythrocytes were lysed with ammonium chloride lysis buffer. Purified peripheral B-cells and FNA samples were snap-frozen for measurement of BTK target occupancy. BTK target occupancy was measured using an ELISA with anti-BTK as a capture antibody and a biotinylated active site probe for BTK, followed by streptavidin-HRP as a detection reagent. The ex vivo incubation with Formula (II) provided a baseline signal for each sample. BTK occupancy in the B cell lysates from peripheral B-cells and lymph node FNA preparations was calculated as a percentage of the control after correction for baseline chemoluminescence. All samples were run in quadruplicate.

[5] = 5 mg/kg PO QD, therapeutic paws only
[6] = 25 mg/kg PO QD, therapeutic paws only
[7] = 3 hr after administration, all cohorts

Question: Which Tmax [1] does the source give for CC#CC(=O)N1CCC[C@H]1c1nc(-c2ccc(C(=O)Nc3ccccn3)cc2)c2c(N)nccn12 [Formula (II), (S)-4-(8-amino-3-(1-(but-2-ynoyl)pyrrolidin-2-yl)imidazo[1,5-a]pyrazin-1-yl)-N-(pyridin-2-yl)benzamide] here?
Answer: The Tmax was roughly 1 h.

Question: What about the “AUC (All Paws) - Corrected for Initial Score” value (from here on “AUC (All Paws) - Corrected”) ([2]; 1 mg/kg PO QD) of the same molecule?
Answer: Its value is 14.99(3.62).

Question: And the “Change in Body Weight (g)” value ([2]; 1 mg/kg PO QD)?
Answer: Its value is −0.36(0.77) g.

Question: And the “Histopathology Summed Score Knees” value ([2]; 1 mg/kg PO QD)?
Answer: Its value is 4.90(1.32).

Question: And the “Histopathology Summed Score Paws” value ([2]; 1 mg/kg PO QD)?
Answer: The value was 7.95(1.54).

Question: What about the “Histopathology Summed Score Six-Joints” value ([2]; 1 mg/kg PO QD) of the same molecule?
Answer: Its value is 6.93(1.22).

Question: What about the “Paw Score AUC (All Paws)” value ([2]; 1 mg/kg PO QD) of the same molecule?
Answer: The value was 22.14(4.11).

Question: And the “disease-induced body weight loss (percent change from baseline) vs vehicle controls” value ([2]; 1 mg/kg PO QD)?
Answer: The value was “significantly inhibited toward normal”.

Question: And the “daily arthritis scores vs vehicle controls” value ([2]; 1 mg/kg PO QD, prophylactic paws)?
Answer: The value was “significantly reduced toward normal”.

Question: And the knee histopathology parameters ([2]; 1 mg/kg, compared to 1 mg/kg ibrutinib)?
Answer: Its knee histopathology parameters is “significantly improved”.

Question: What about the “six-joint histopathology, reduction of summed scores vs vehicle controls” value ([2]; 5 mg/kg PO QD) of the same molecule?
Answer: Its value is 86%.

Question: And the “total body weight loss from enrollment to study termination” value ([2]; 5 mg/kg PO QD)?
Answer: Its value is “significantly inhibited”.

Question: What about the “Clinical arthritis scores AUC, reduction vs vehicle controls” value ([2]; 5 mg/kg PO QD, all paws) of the same molecule?
Answer: Its value is 82%.

Question: What about the “Clinical arthritis scores AUC, reduction when corrected for initial enrollment score” value ([2]; 5 mg/kg PO QD, all paws) of the same molecule?
Answer: The value was 99%.

Question: What about the “arthritis scores measured daily vs vehicle controls” value ([2]; 5 mg/kg PO QD, all paws) of the same molecule?
Answer: The value was “significantly reduced toward normal”.

Question: And the “AUC (All Paws) - Corrected” value ([2]; 5 mg/kg PO QD)?
Answer: The value was “*0.43(2.76)”.

Question: What about the “Change in Body Weight (g)” value ([2]; 5 mg/kg PO QD) of the same molecule?
Answer: Its value is “*1.23(0.52) g”.

Question: And the “Histopathology Summed Score Knees” value ([2]; 5 mg/kg PO QD)?
Answer: Its value is “*1.48(0.94)”.

Question: What about the “Histopathology Summed Score Paws” value ([2]; 5 mg/kg PO QD) of the same molecule?
Answer: The value was “*2.23(0.72)”.

Question: And the “Histopathology Summed Score Six-Joints” value ([2]; 5 mg/kg PO QD)?
Answer: Its value is “*1.98(0.69)”.

Question: What about the “Paw Score AUC (All Paws)” value ([2]; 5 mg/kg PO QD) of the same molecule?
Answer: The value was “*7.58(2.63)”.

Question: And the “disease-induced body weight loss (percent change from baseline) vs vehicle controls” value ([2]; 5 mg/kg PO QD)?
Answer: Its value is “significantly inhibited toward normal”.

Question: And the “daily arthritis scores vs vehicle controls” value ([2]; 5 mg/kg PO QD, prophylactic paws)?
Answer: The value was “significantly reduced toward normal”.

Question: What about the “Clinical arthritis scores AUC, reduction vs vehicle controls” value ([2]; 5 mg/kg PO QD, prophylactic paws only) of the same molecule?
Answer: Its value is 94%.

Question: And the “daily arthritis scores vs vehicle controls” value ([2]; 5 mg/kg PO QD, therapeutic paws)?
Answer: The value was “significantly reduced toward normal”.

Question: And the “Clinical arthritis scores AUC, reduction vs vehicle controls” value [2, 5]?
Answer: The value was 64%.

Question: What about the “Clinical arthritis scores AUC, reduction when corrected for initial enrollment score” value [2, 5] of the same molecule?
Answer: Its value is 110%.

Question: And the “six-joint histopathology, reduction of summed scores vs vehicle controls” value ([2]; 25 mg/kg PO QD)?
Answer: Its value is 93%.

Question: And the “total body weight loss from enrollment to study termination” value ([2]; 25 mg/kg PO QD)?
Answer: Its value is “significantly inhibited”.

Question: And the “Clinical arthritis scores AUC, reduction vs vehicle controls” value ([2]; 25 mg/kg PO QD, all paws)?
Answer: Its value is 95%.

Question: What about the “Clinical arthritis scores AUC, reduction when corrected for initial enrollment score” value ([2]; 25 mg/kg PO QD, all paws) of the same molecule?
Answer: The value was 115%.

Question: And the “arthritis scores measured daily vs vehicle controls” value ([2]; 25 mg/kg PO QD, all paws)?
Answer: The value was “significantly reduced toward normal”.

Question: And the “AUC (All Paws) - Corrected” value ([2]; 25 mg/kg PO QD)?
Answer: The value was “*−5.24(1.36)”.

Question: What about the “Change in Body Weight (g)” value ([2]; 25 mg/kg PO QD) of the same molecule?
Answer: The value was “*1.01(0.66) g”.

Question: What about the “Histopathology Summed Score Knees” value ([2]; 25 mg/kg PO QD) of the same molecule?
Answer: The value was “*1.25(0.43)”.

Question: And the “Histopathology Summed Score Paws” value ([2]; 25 mg/kg PO QD)?
Answer: Its value is “*0.94(0.40)”.

Question: What about the “Histopathology Summed Score Six-Joints” value ([2]; 25 mg/kg PO QD) of the same molecule?
Answer: The value was “*1.04(0.36)”.

Question: What about the “Paw Score AUC (All Paws)” value ([2]; 25 mg/kg PO QD) of the same molecule?
Answer: Its value is “*1.91(0.96)”.

Question: What about the “disease-induced body weight loss (percent change from baseline) vs vehicle controls” value ([2]; 25 mg/kg PO QD) of the same molecule?
Answer: Its value is “significantly inhibited toward normal”.

Question: What about the “daily arthritis scores vs vehicle controls” value ([2]; 25 mg/kg PO QD, prophylactic paws) of the same molecule?
Answer: Its value is “significantly reduced toward normal”.

Question: And the “Clinical arthritis scores AUC, reduction vs vehicle controls” value ([2]; 25 mg/kg PO QD, prophylactic paws only)?
Answer: The value was 100%.

Question: And the “daily arthritis scores vs vehicle controls” value ([2]; 25 mg/kg PO QD, therapeutic paws)?
Answer: The value was “significantly reduced toward normal”.

Question: And the “Clinical arthritis scores AUC, reduction vs vehicle controls” value [2, 6]?
Answer: Its value is 89%.

Question: What about the “Clinical arthritis scores AUC, reduction when corrected for initial enrollment score” value [2, 6] of the same molecule?
Answer: The value was 152%.

Question: What about the “spleen weights compared to vehicle controls” value ([2]; all dose groups PO QD) of the same molecule?
Answer: Its value is “not significantly affected”.

Question: And the “intracellular total BTK protein level in B lymphocytes” value ([3]; 15 mg QD x 7 days, after 48 hours (between Day 2 and Day 3))?
Answer: Its value is “Decreased BTK levels; also recorded: decrease”.

Question: What about the “intracellular total BTK protein level in B lymphocytes” value ([3]; 15 mg QD, after the initial dose) of the same molecule?
Answer: Its value is “increased”.

Question: What about the “BTK occupancy in lymph node FNAs” value [4, 7] of the same molecule?
Answer: Its value is greater than 90%.

Question: And the “BTK occupancy in peripheral B-cells” value [4, 7]?
Answer: The value was no less than 90%.

Question: And the “BTK occupancy in peripheral blood sample” value ([4]; day 7 pre-dose, steady state (24 hr QD or 12 hr BID after dose))?
Answer: The value was “Full BTK occupancy”.

Question: And the “BTK occupancy in tumor bearing lymph nodes” value ([4]; pre-dose Day 7)?
Answer: Its value is 82-88%.
